Experimental data reported in paper PMC5485613, “A novel TRPM8 agonist relieves dry eye discomfort” (BMC Ophthalmology, 2017).

Assays:
[1] = biological target: T1, human TRPM8 (Homo sapiens, UniProt Q7Z2W7); assay: TRPM8 calcium assay (Fluo-8, FLIPR) in transfected CHO cells; type: cell-based; details: x Menthol
T1 construct: host or cells: CHO cells, stably transfected
Protocol: Compounds were tested on Chinese Hamster Ovary (CHO) cells stably transfected with human TRPM8 cDNAs using a Fluo-8 calcium kit and a Fluorescence Imaging Plate Reader ([…]™) instrument. […] Solutions were prepared by diluting stock solutions in a HEPES-buffered physiological saline (HBPS) solution. Test compound and control formulations were loaded in polypropylene or glass-lined 384-well plates, and placed into the FLIPR instrument (Molecular Devices Corporation, Union City, CA, USA). Each was tested at 8 concentrations with n = 4 replicates per determination. […] For […]™ assay, cells were plated in 384-well black wall, flat clear-bottom microtiter plates (Type: BD Biocoat Poly-D-Lysine Multiwell Cell Culture Plate) at approximately 30,000 cells per well. Cells were incubated at 37 °C overnight to reach a near confluent monolayer appropriate for use in a fluorescence assay. The test procedure was to remove the growth media and to add 40 μL of HBPS containing Fluo-8 for 30 min at 37 °C. 10 μL of test compound, vehicle, or control solutions in HBPS were added to each well and read for 4 min. Concentration-response data were analyzed via the FLIPR Control software that is supplied with the FLIPR System (MDS-AT) and fitted to a Hill equation.

[2] = system: cornea; design: method as in ref 62 = [62]; 62. Sung MS, Lee HS, Yang JM, Kim JG, Wei ET, Kim SJ, Yoon KC. paper presented at the 111th Annual Meeting of the Korean Ophthalmological Society, Busan, South Korea. 2014.; details: 2 mg/mL solution sprayed onto the closed eyelid; cited from earlier work
[3] = system: hNav1.7 (sodium channels); design: method as in ref 63 = [63]; 63. Wei ET. Design of Topical Sensory/cooling TRPM8 agonists for cough. Abstracts of the First International Cough Conference, Guangzhou, China, November 10–11, 2013.; details: 5 μM; cited from earlier work
[4] = design: method as in ref 28 = [28]; 28. Wei ET. Topical agents for the treatment of sensory discomfort in the nasal membranes. US20150265752 A1, Sept. 24, 2015.; details: cited from earlier work
[5] = system: eye; details: cited from earlier work
[6] = biological target: T2, mouse TRPV1 (Mus musculus, UniProt Q704Y3); assay: TRPV1 calcium imaging (Fura-2) in transfected KNRK cells; type: cell-based; details: 10 μM
T2 construct: expressed in transfected cells; host or cells: KNRK cells (rat kidney), transiently transfected
Protocol: (§1) To further examine the specificity of C3, tests were conducted on TRPV1 channels and TRPA1 channels expressed in Kirsten murine sarcoma virus transformed rat kidney (KNRK) cells. KNRK cells were cultured as a monolayer and maintained in Dulbeccos’s Modified Eagles’s Medium (Life Technologies), supplemented with 10% fetal bovine serum (Life Technologies), 100 units/mL penicillin and 100 μg/mL streptomycin, in an incubator of 5% CO2 at 37 °C. After suspension, the cells were coated on cover slips for 12 h, then transiently transfected with cDNA (pc3.1 DNA) for TRPV1 or TRPA1 with Lipofectamine 2000 (Invitrogen) for 24 h, and loaded with Fura-2 AM™ (Molecular Probes) for 40 min at 37 °C. After washing and recovery, KNRK cells were imaged at 340 and 380 nm excitation to detect free calcium influx. An increase of 50% of the 340/380 ratio was considered as the response threshold which were measured under masked conditions for plasmids. Compounds were applied to the bath and calcium response was acquired by an inverted Nikon fluorescence microscope with a CoolSnap HQ2 CCD camera (Photometrics, Tucson, AZ). Data were quantified offline with the Nikon-NIS program.

[7] = system: TRPM8-sensory neurons; assay: Calcium imaging of primary sensory neurons from Trpm8 EGFP mice; type: cell-based, mouse; details: menthol 100 μM
Protocol: Calcium imaging was used to test the C3 selectivity on TRPM8-sensory neurons. Trpm8 ^+/EGFPmice were gifted by Dr. Yu-Qing Cao, Pain Center of Washington University in Saint Louis, School of Medicine, Missouri. Trigeminal ganglions and dorsal root ganglions from 4 to 5 weeks old mice were collected after CO2 euthanasia and digested for 30–40 min before plated on cover slips (8 mm), which were coated with poly-D-lysine for 40 min before use. Cover slips were gently washed with culture media to remove myelin after incubating for 35–40 min. Calcium imaging was done after incubation overnight at 37 °C, 5% CO2. Neurons were loaded with Fura-2 AM™ (Molecular Probes) for 30 min at room temperature. After washing and recovery, neurons were imaged at 340 and 380 nm excitation to detect free calcium influx. An increase of 50% of the 340/380 ratio was considered as the response threshold which were measured under blinded conditions for genotypes. Compounds were applied to the bath and calcium response was acquired by an inverted Nikon fluorescence microscope with a CoolSnap HQ2 CCD camera (Photometrics, Tucson, AZ). Data was quantified offline with the Nikon-NIS program.

[8] = biological target: T3, human TRPA1 (Homo sapiens, UniProt O75762); assay: TRPA1 calcium imaging (Fura-2) in transfected KNRK cells; type: cell-based; details: positive control, 100 μM
T3 construct: expressed in transfected cells; host or cells: KNRK cells (rat kidney), transiently transfected
Protocol: as §1

T1 sequence (Q7Z2W7 whole entry): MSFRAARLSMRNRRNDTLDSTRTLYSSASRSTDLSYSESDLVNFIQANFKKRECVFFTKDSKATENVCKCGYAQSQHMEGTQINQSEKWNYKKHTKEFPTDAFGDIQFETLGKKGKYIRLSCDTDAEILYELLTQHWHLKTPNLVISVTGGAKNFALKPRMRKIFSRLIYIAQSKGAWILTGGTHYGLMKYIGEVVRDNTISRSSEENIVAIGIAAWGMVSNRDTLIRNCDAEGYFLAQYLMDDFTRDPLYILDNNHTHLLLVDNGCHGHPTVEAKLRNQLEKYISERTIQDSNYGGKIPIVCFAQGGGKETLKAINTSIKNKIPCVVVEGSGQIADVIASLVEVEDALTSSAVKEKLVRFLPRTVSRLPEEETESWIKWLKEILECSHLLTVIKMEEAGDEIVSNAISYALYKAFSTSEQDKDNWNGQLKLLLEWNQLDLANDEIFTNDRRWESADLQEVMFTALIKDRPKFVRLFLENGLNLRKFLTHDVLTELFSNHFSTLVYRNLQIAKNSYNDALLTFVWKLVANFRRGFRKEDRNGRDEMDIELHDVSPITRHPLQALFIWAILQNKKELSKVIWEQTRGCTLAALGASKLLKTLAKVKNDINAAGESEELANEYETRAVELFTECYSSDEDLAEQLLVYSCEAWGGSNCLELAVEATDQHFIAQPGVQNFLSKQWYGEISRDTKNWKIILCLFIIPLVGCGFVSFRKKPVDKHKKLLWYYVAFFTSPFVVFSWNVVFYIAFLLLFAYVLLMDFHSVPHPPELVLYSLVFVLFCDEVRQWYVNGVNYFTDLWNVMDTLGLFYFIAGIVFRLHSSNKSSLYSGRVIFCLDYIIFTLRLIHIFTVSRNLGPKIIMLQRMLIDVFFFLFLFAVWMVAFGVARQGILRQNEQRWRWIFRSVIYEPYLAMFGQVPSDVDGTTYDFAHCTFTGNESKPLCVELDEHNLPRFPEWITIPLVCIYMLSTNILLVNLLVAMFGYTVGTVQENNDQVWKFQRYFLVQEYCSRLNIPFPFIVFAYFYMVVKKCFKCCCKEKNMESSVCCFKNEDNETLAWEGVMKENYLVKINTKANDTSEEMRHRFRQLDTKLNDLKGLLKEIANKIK
T3 sequence (O75762 whole entry): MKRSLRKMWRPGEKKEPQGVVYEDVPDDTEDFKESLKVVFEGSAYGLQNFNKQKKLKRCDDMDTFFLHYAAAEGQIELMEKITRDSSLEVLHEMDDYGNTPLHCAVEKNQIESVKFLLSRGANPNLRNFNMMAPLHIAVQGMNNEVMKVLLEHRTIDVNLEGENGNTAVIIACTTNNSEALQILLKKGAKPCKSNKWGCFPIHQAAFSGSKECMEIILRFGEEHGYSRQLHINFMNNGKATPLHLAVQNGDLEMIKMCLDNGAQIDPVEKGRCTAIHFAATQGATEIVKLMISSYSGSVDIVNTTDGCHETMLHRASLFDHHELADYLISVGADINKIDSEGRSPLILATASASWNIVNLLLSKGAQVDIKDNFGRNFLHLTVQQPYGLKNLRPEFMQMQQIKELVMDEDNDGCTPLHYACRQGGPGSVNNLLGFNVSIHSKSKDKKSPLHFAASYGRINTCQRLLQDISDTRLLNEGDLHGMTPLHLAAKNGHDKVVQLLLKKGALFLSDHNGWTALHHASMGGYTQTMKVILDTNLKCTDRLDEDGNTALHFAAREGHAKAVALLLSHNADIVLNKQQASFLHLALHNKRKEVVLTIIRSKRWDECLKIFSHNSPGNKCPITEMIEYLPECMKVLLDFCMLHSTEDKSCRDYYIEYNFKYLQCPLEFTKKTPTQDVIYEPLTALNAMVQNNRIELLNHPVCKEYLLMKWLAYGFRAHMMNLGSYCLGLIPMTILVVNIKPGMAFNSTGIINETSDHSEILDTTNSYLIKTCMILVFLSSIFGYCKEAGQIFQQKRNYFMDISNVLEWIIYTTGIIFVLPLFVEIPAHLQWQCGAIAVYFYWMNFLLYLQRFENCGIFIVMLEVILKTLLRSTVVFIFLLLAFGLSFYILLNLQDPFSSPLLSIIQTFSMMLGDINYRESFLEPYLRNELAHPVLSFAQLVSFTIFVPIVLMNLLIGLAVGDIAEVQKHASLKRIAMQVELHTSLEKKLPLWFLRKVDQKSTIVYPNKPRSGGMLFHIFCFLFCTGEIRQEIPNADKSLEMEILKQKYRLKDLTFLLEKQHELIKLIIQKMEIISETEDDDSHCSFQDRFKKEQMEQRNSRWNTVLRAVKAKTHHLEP
T2 sequence (Q704Y3 whole entry): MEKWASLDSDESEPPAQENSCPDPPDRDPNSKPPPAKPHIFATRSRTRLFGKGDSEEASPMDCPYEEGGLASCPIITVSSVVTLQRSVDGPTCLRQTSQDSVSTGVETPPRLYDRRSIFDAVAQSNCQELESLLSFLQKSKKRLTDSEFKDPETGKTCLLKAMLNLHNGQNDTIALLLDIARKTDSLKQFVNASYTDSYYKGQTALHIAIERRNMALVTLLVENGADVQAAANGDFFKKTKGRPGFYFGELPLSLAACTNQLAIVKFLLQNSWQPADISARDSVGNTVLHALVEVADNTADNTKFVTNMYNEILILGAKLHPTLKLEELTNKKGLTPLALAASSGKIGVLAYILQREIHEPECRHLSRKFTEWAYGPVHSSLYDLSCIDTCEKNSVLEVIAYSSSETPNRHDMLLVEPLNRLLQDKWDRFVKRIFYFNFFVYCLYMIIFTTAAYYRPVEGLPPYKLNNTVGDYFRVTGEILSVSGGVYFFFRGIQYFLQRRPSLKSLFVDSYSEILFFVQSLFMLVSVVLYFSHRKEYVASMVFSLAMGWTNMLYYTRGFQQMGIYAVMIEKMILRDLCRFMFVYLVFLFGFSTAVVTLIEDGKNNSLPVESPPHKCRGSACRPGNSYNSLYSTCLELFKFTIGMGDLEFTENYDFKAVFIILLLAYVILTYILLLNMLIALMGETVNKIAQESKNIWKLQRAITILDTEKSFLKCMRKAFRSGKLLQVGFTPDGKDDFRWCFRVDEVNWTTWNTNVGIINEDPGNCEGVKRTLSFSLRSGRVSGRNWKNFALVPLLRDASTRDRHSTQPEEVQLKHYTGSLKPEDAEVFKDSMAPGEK

Row | Compound | relative potency to l-menthol (menthol = 1) [1] | other results
1 | CCC(C)P(=O)(CCC(C)C)C(C)CC (stereo not shown) [1-di-sec-butylphosphoryl-3-methyl-butane] | 0.9 | –
2 | CCCCP(=O)(C(C)CC)C(C)CC (stereo not shown) [1-di-sec-butylphosphoryl-4] | 0.3 | –
3 | CCCCCCCP(=O)(C(C)CC)C(C)CC (stereo not shown) [1-di-sec-butylphosphoryl-heptane] | 3.4 | –
4 | O=C1NC(c2cccc([N+](=O)[O-])c2)=CCN1c1ccccc1O [Icilin, icilin] | – | solubility in ophthalmic vehicles [4]: not soluble; sensation on the eyelids ([5]; anecdotal): punctate and long-lasting cooling
5 | COc1cc(CNC(=O)CCCC/C=C/C(C)C)ccc1O [capsaicin, reference compound] | – | activation of TRPV1 (calcium response) [6]: active
6 | CC(C)[C@@H]1CC[C@@H](C)C[C@H]1O [l-menthol, reference compound] | – | calcium response of Trpm8 EGFPf/+ neurons [7]: sensitive; eye sensation after menthol solutions [5]: stinging followed by a brief episode of cooling
7 | C=CCN=C=S [mustard oil, reference compound] | – | activation of TRPA1 (calcium response) [8]: active

Now from value to compound, other results behind:

Row | relative potency to l-menthol (menthol = 1) [1] | Compound | other results
8 | 4.7 | CCCCCCP(=O)(C(C)CC)C(C)CC (stereo not shown) [1-di-sec-butylphosphoryl-hexane] | –
9 | 2.9 | CCCCCCCCP(=O)(C(C)CC)C(C)CC (stereo not shown) [1-di-sec-butylphosphoryl-octane] | –
10 | 2.2 | CCCCCP(=O)(C(C)CC)C(C)CC (stereo not shown) [1-di-sec-butylphosphoryl-pentane] | corneal sensitivity [2]: not affected; lidocaine-like activity on hNav1.7 [3]: did not have lidocaine-like activity
11 | 0.2 | CCCCCP(=O)(CC(C)C)CC(C)C [1-diisobutylphosphoryl-pentane] | –
12 | 5.4 | CCCCCCCP(=O)(C(C)C)C(C)C [1-diisopropylphosphoryl-heptane] | –
13 | 1.6 | CCCCCCP(=O)(C(C)C)C(C)C [1-diisopropylphosphoryl-hexane] | –
14 | 5.4 | CCCCCCCCP(=O)(C(C)C)C(C)C [1-diisopropylphosphoryl-octane] | –
15 | 0.7 | CCCCCP(=O)(C(C)C)C(C)C [1-diisopropylphosphoryl-pentane] | –
